Assay results: patent US20060128738A1, “Treatment of interstitial cystitis using cannabinoid analogs” (Indevus Pharmaceuticals, Inc., priority 2004, published 2006)

System: cyclophosphamide-induced bladder overactivity
Assay: Subacute bladder irritation by cyclophosphamide, cystometrograms, i.v. administration
Format: in vivo
Details: CYP-treated rats, after administration
Method: Cystometrograms (CMGs) are performed under urethane anesthesia (1 g/kg s.c.) using a catheter inserted into the bladder through the bladder dome via a midline abdominal incision. Saline is infused at a rate of 0.04 ml/min to elicit repetitive bladder contractions. Effects of intravenous (i.v.) injection of cannabinoid analogs and analogs of (6aR,10aR)-Δ^8-Tetrahydrocannabinol-11-oic Acids on bladder overactivity induced by either intravesical administration of acetic acid solution or one day treatment with cyclophosphamide are investigated. […] Thus, these Compound analogs can be effective for the treatment of pain and urinary frequency symptoms in patients with painful bladder syndrome/interstitial cystitis.
One day after intraperitoneal injection of cyclophosphamide (CYP, 150 mg/kg), control CMGs are recorded for 1 to 2 hour prior to i.v. administration of Compound analog or vehicle. See, example i, above. Following administration of Compound analog, changes in cystometric parameters such as ICIs, MVP, PT and BP are recorded to evaluate the effects of Compound analog on cyclophosphamide-induced bladder overactivity.

CCCCCCC(C)(C)c1cc(O)c2c(c1)OC(C)(C)[C@@H]1CC=C(C(=O)O)C[C@@H]21 [IP-751]
No significant changes: change in baseline pressure (BP) | change in maximum voiding pressure (MVP) | change in pressure threshold (PT)
